Laboratory results published in ChEMBL document CHEMBL4392830, “Synthesis and biological evaluation of Doxorubicin-containing conjugate targeting PSMA” (Bioorg Med Chem Lett, 2019).
Active and inactive are the calls of the source. No cut-off for these calls is given here.

Legend:
[1] = Drug uptake in nucleus of PSMA-positive human LNCAP cells measured after 48 hrs; format: ADME, subcellular
[2] = Drug uptake in nucleus of PSMA-positive human LNCAP cells at 15 uM measured after 2 hrs by DAPI staining based fluorescence assay; format: ADME, subcellular
[3] = Drug uptake in nucleus of PSMA-negative human PC3 cells at 15 uM measured after 2 hrs by DAPI staining based fluorescence assay; format: ADME, subcellular; conditions: pc-3, 2 h
[4] = Ratio of drug level in nucleus to cytoplasm of PSMA-positive human LNCAP cells measured after 40 milliseconds; format: ADME
[5] = Ratio of drug level in nucleus to cytoplasm of PSMA-negative human PC3 cells measured after 40 milliseconds; format: ADME
LNCaP = assay: Cytotoxicity against PSMA-positive human LNCAP cells by MTT assay; format: functional
PC-3 [6] = assay: Cytotoxicity against PSMA-negative human PC3 cells by MTT assay; format: functional
LNCaP C4-2 = assay: Cytotoxicity against PSMA-positive human C4-2 cells by cellTiter 96 aqueous cell proliferation assay; format: functional, cell-based
PC-3 [7] = assay: Cytotoxicity against PSMA-negative human PC3 cells by cellTiter 96 aqueous cell proliferation assay; format: functional, cell-based
[8] = Antitumor activity against PSMA-positive human PC3-PIP cells xenografted in nu/nu mouse assessed as tumor growth inhibition at 4 mg/kg, ip per week for 3 weeks relative to control; format: functional; conditions: 504 h, read-out: TGI
[9] = target: T1, Glutamate carboxypeptidase 2 (Homo sapiens, UniProt Q04609); assay: Binding affinity to PSMA in human LNCAP cells assessed as doxorubicin release in cytoplasm measured after 48 hrs; format: ADME, cell-based
[10] = target: T1, Glutamate carboxypeptidase 2; assay: Binding affinity to PSMA in human LNCAP cells assessed as doxorubicin release in nucleus measured after 40 milliseconds; format: ADME, cell-based
[11] = Drug uptake in nucleus of PSMA-negative human PC3 cells measured after 40 milliseconds; format: ADME, subcellular; conditions: pc-3
[12] = target: T1, Glutamate carboxypeptidase 2; assay: Binding affinity to PSMA in human LNCAP cells assessed as doxorubicin release in cytoplasm measured after 40 milliseconds; format: ADME, cell-based
[13] = Drug uptake in cytoplasm of PSMA-negative human PC3 cells measured after 40 milliseconds; format: ADME, subcellular; conditions: pc-3
[14] = target: T1, Glutamate carboxypeptidase 2; assay: Binding affinity to PSMA in human LNCAP cells measured after 2 hrs by DAPI staining based fluorescence assay; format: ADME, cell-based
[15] = Drug uptake in PSMA-negative human PC3 cells measured after 2 hrs by DAPI staining based fluorescence assay; format: ADME, cell-based; conditions: pc-3, 2 h

T1 sequence (Q04609 whole entry): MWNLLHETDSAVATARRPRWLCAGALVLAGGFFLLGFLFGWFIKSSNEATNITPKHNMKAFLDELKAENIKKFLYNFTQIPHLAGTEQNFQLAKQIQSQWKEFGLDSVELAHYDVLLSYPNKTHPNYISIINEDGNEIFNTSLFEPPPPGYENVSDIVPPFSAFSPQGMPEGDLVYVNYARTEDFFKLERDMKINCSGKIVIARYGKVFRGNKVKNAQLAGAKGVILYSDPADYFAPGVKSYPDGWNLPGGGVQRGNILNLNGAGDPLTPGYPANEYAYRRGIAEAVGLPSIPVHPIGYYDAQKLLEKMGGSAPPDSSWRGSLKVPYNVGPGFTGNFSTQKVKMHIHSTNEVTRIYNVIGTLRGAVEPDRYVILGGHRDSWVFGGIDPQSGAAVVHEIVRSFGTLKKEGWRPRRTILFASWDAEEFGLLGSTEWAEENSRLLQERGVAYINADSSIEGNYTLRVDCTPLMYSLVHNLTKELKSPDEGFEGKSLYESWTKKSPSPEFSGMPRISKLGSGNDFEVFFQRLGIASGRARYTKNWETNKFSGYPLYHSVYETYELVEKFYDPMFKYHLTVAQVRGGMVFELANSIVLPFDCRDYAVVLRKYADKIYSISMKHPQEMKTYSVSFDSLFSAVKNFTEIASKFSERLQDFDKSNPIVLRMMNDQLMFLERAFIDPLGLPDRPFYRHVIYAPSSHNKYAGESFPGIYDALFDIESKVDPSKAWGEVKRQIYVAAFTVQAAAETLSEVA

Q: Which Drug uptake [1] does the source give for `COc1cccc2c1C(=O)c1c(O)c3c(c(O)c1C2=O)C[C@@](O)(C(=O)CO)C[C@@H]3O[C@H]1C[C@H](N)[C@H](O)[C@H](C)O1` [DOXORUBICIN] here?
A: Active

Q: And the Drug uptake [2]?
A: Active

Q: And the Drug uptake [3]?
A: Active

Q: And the Ratio [4]?
A: 3.5

Q: What about the Ratio [5] of the same compound?
A: 3.7

Q: And the CC50 (LNCaP)?
A: 107 nM

Q: And the CC50 (PC-3 [6])?
A: < 500 nM

Q: And the IC50 (LNCaP C4-2)?
A: > 32 nM

Q: What about the IC50 (PC-3 [7]) of the same compound?
A: > 32 nM

Q: And the inhibition in vivo at 4 mg/kg [8]?
A: 92%

Q: What does the source list for `COc1cccc2c1C(=O)c1c(O)c3c(c(O)c1C2=O)C[C@@](O)(C(=O)CO)C[C@@H]3O[C@H]1C[C@H](NC(=O)CCC(=O)NCCCCCCCCCCC(=O)NCCCC[C@H](NC(=O)N[C@@H](CCC(=O)O)C(=O)O)C(=O)O)[C@H](O)[C@H](C)O1`?
A: Activity [9]: Active; Activity [10]: Not Active; Drug uptake [11]: Not Active; Activity [12]: Not Active; Drug uptake [13]: Not Active; CC50 (LNCaP): inactive; CC50 (PC-3 [6]): inactive; Activity (LNCaP C4-2): inactive; Activity (PC-3 [7]): inactive

Q: For `CN1\C(=C/C=C/C=C/C2=[N+](CCCCCC(=O)NCCCCCCCCCCC(=O)NCCCC[C@H](NC(=O)N[C@@H](CCC(=O)O)C(=O)O)C(=O)O)c3cc(S(=O)(=O)[O-])ccc3C2(C)C)C(C)(C)c2cc(S(=O)(=O)[O-])ccc21.[Na+]`, which Activity [14] is on record?
A: Active

Q: What about the Drug uptake [15] of the same compound?
A: Not Active
